Assay results published in ChEMBL document CHEMBL3879901, “Substituted isoquinolin-1(2H)-ones, and methods of use thereof” (2012).
Activity calls are given as the source filed them. No cut-off for these calls is given here.

Tests used:
Rattus norvegicus [1] = test: Antiarthritic activity in type 2 collagen-induced Lewis rat arthritis model assessed as reduction in serum anti-type 2 collagen levels at 60 mg/kg, po administered every 12 hrs for 16 days measured on day 17 of post last dose by ELISA relative to control; format: functional; design: scale not given: the % may be the effect or the level left
Rattus norvegicus [2] = test: Antiarthritic activity in type 2 collagen-induced po dosed Lewis rat arthritis model assessed as reduction in knee pannus administered every 12 hrs for 16 days measured on day 17 of post last dose by toluidine blue staining-based assay; format: functional, organism-based
Homo sapiens = species on record: Homo sapiens; test: Inhibition of allergen-induced activation of basophilic granulocytes in human whole blood preincubated for 20 mins followed by allergen induction measured after 20 mins using sub micromolar range of compound by basotest assay; format: functional, tissue-based
Rattus norvegicus [3] = test: Antiarthritic activity in type 2 collagen-induced po dosed Lewis rat arthritis model assessed as reduction in knee inflammation administered every 12 hrs for 16 days measured on day 17 of post last dose by toluidine blue staining-based assay; format: functional, organism-based
Rattus norvegicus [4] = test: Antiarthritic activity in type 2 collagen-induced Lewis rat arthritis model assessed as reduction in ankle diameter at 10 to 60 mg/kg, po administered every 12 hrs for 16 days measured on day 9 of compound dosing to day 17 of post last dose relative to vehicle-treated control; format: functional, organism-based
PI3K p110 beta/p85 alpha = PI3K p110 beta/p85 alpha (Homo sapiens, UniProt P42338); test: Inhibition of N-terminal His6-tagged recombinant full-length human p110beta/untagged recombinant full length p85alpha expressed in baculovirus infected Sf21 cells using phosphatidylinositol as substrate in presence of gamma-32P-ATP after 5 mins by thin layer chromatographic method
Rattus norvegicus [5] = test: Antiarthritic activity in type 2 collagen-induced po dosed Lewis rat arthritis model assessed as reduction in bone resorption in knee administered every 12 hrs for 16 days measured on day 17 of post last dose by toluidine blue staining-based assay; format: functional, organism-based
Rattus norvegicus [6] = test: Antiarthritic activity in type 2 collagen-induced po dosed Lewis rat arthritis model assessed as reduction in cartilage damage in knee administered every 12 hrs for 16 days measured on day 17 of post last dose by toluidine blue staining-based assay; format: functional, organism-based
[7] = target: PI3-kinase p110-delta/p85-alpha (Homo sapiens, UniProt O00329); test: Inhibition of N-terminal His6-tagged recombinant full-length human p110delta/untagged recombinant full length p85alpha expressed in baculovirus infected Sf21 cells using phosphatidylinositol as substrate in presence of gamma-32P-ATP after 5 mins by thin layer chromatographic method
[8] = target: Phosphatidylinositol 4,5-bisphosphate 3-kinase catalytic subunit gamma isoform (Homo sapiens, UniProt P48736); test: Inhibition of recombinant human C-terminal His6-tagged p110gamma expressed in insect cells using phosphatidylinositol as substrate in presence of gamma-32P-ATP after 5 mins by thin layer chromatographic method
[9] = Antiproliferative activity against Balb/c mouse splenic B cells preincubated for 30 mins followed by LPS or F(ab')2 donkey anti-mouse IgM and recombinant mouse IL4 stimulation measured after 72 hrs by Alamar Blue reduction assay; format: functional, cell-based
[10] = target: PI3-kinase p110-alpha/p85-alpha (Homo sapiens, UniProt P42336); test: Inhibition of N-terminal His6-tagged recombinant full-length human p110alpha/untagged recombinant full length human p85alpha expressed in baculovirus infected Sf21 cells using phosphatidylinositol as substrate in presence of gamma-32P-ATP after 5 mins by thin layer chromatographic method
[11] = target: PI3-kinase class I (Homo sapiens) (UniProt P27986+P42338+P48736+P42336+O00459+O00329+Q8WYR1+Q92569); test: Inhibition of PI3K in human PBMC assessed as decrease in anti-CD3-stimulated Akt phosphorylation at S473 preincubated for 15 mins followed by anti-CD3 stimulation measured after 5 to 15 mins by phosflow method
[12] = target: Phosphatidylinositol 3-kinase (Mus musculus) (UniProt P26450+P42337); test: Inhibition of PI3K in mouse unfractionated splenocytes assessed as decrease in anti-CD3-stimulated Akt phosphorylation at S473 preincubated for 15 mins followed by anti-CD3 stimulation measured after 5 to 15 mins by phosflow method; format: cell-based
[13] = target: RAC-alpha serine/threonine-protein kinase (Mus musculus) (UniProt P31750); test: […] of anti-CD3-stimulated Akt phosphorylation in mouse unfractionated splenocytes preincubated for 15 mins followed by anti-CD3 stimulation measured after 5 to 15 mins by phosflow method; format: cell-based
[14] = target: RAC-alpha serine/threonine-protein kinase (Homo sapiens) (UniProt P31749); test: […] of anti-CD3-stimulated Akt phosphorylation in human PBMC preincubated for 15 mins followed by anti-CD3 stimulation measured after 5 to 15 mins by phosflow method

Chain of PI3-kinase p110-alpha/p85-alpha (P27986 whole entry): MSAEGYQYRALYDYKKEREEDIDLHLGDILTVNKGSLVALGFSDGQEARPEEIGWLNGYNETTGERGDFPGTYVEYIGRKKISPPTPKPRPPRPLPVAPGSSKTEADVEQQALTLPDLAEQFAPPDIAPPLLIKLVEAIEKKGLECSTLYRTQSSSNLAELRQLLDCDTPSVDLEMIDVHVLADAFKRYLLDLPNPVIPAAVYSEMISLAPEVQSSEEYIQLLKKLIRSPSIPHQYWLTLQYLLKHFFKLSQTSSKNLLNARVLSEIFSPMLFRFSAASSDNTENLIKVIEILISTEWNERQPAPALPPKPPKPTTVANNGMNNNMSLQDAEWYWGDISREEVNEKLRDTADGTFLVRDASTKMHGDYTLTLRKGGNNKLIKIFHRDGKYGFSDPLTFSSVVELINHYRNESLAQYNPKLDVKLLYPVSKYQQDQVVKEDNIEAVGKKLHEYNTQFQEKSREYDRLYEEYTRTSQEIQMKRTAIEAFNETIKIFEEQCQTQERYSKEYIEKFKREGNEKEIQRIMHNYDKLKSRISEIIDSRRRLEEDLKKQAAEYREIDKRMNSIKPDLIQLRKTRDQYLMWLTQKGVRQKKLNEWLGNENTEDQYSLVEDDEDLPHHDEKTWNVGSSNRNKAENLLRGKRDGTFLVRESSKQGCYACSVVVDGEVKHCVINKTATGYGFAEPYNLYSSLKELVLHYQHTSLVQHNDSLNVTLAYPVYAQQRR
Chain of PI3-kinase p110-alpha/p85-alpha (P42336 whole entry): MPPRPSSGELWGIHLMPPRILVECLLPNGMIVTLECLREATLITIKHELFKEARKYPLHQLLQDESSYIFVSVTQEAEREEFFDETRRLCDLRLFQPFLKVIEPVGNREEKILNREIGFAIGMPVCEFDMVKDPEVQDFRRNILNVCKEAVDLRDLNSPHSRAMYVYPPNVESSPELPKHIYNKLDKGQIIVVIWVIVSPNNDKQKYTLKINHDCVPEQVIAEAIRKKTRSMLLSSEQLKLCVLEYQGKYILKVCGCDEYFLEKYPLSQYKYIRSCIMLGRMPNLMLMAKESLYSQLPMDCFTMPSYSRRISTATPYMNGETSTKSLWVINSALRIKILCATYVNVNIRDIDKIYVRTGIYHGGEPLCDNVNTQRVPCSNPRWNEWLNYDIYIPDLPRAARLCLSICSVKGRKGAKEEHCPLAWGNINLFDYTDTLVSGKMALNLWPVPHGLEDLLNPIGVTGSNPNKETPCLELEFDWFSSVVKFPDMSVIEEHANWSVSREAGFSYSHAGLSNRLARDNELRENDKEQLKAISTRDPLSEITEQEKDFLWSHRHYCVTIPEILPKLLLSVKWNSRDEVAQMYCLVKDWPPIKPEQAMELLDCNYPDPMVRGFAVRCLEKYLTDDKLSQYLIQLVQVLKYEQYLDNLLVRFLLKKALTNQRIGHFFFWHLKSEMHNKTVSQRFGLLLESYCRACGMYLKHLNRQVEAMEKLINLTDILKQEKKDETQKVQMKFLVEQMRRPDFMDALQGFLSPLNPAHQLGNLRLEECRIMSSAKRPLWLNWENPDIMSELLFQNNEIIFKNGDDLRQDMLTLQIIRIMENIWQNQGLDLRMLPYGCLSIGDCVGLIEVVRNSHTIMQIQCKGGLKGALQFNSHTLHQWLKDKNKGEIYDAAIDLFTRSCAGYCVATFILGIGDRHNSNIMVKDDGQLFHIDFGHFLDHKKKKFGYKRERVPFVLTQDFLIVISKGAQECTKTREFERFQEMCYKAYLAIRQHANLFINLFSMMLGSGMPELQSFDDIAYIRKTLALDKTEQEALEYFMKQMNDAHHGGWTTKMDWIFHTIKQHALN
Chain of PI3K p110 beta/p85 alpha (P27986 whole entry): as the sequence (P27986 whole entry) above
Chain of PI3K p110 beta/p85 alpha (P42338 whole entry): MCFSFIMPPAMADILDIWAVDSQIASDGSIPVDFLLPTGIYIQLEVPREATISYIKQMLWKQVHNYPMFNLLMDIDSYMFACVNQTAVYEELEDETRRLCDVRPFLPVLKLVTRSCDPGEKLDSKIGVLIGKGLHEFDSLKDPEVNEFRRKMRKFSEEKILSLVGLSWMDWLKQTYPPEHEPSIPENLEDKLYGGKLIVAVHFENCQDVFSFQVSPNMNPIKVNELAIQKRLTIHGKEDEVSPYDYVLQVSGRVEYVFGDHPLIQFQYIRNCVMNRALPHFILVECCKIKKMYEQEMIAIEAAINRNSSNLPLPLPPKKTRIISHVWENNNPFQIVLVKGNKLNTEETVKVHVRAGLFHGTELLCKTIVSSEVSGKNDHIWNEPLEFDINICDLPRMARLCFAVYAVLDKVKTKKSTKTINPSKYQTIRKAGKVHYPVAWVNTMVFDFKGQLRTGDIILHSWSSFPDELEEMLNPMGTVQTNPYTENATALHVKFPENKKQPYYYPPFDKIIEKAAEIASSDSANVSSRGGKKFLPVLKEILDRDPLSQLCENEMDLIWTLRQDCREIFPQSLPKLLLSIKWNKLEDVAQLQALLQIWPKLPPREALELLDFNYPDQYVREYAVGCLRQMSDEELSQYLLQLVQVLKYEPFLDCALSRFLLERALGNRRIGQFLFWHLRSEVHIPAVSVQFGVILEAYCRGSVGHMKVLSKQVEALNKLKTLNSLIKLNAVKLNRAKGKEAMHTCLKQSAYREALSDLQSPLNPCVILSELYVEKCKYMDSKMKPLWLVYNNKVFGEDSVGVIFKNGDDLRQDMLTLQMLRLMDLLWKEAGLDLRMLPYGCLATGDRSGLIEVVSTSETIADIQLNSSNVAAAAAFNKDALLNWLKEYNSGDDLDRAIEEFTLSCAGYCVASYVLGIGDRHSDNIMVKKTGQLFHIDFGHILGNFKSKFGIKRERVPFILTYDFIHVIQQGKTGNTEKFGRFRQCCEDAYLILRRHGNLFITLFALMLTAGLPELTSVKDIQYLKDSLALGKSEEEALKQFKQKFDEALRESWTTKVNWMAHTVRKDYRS
Chain of PI3-kinase p110-delta/p85-alpha (P27986 whole entry, canonical isoform): as the sequence (P27986 whole entry) above
Chain of PI3-kinase p110-delta/p85-alpha (O00329 whole entry, canonical isoform): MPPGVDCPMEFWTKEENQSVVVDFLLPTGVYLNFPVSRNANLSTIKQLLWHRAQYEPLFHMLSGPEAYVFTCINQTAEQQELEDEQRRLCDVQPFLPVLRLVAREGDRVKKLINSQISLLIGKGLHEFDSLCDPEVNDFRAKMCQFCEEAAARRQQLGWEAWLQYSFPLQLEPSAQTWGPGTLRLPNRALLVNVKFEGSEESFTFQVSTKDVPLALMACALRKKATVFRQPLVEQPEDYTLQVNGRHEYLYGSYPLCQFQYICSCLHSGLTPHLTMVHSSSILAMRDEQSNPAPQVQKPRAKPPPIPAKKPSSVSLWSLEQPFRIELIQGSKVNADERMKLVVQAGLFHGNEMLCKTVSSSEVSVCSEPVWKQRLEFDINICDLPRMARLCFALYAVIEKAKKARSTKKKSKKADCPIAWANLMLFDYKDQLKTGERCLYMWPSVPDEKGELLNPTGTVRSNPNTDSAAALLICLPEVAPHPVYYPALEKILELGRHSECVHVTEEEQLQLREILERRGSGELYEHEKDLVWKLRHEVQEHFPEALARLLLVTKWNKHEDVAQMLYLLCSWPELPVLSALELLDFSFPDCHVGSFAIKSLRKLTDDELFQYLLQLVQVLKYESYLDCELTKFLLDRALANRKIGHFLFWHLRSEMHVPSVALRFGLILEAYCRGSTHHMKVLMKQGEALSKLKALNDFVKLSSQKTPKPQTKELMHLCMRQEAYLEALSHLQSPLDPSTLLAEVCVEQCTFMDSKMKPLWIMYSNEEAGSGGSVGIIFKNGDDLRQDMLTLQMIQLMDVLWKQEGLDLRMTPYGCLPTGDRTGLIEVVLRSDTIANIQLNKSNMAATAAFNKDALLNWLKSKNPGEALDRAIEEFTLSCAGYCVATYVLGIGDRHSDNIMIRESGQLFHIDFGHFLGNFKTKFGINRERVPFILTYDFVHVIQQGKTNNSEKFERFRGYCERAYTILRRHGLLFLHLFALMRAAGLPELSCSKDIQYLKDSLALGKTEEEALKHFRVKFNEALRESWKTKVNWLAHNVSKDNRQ
Chain of Phosphatidylinositol 4,5-bisphosphate 3-kinase catalytic subunit gamma isoform (P48736 whole entry, canonical isoform): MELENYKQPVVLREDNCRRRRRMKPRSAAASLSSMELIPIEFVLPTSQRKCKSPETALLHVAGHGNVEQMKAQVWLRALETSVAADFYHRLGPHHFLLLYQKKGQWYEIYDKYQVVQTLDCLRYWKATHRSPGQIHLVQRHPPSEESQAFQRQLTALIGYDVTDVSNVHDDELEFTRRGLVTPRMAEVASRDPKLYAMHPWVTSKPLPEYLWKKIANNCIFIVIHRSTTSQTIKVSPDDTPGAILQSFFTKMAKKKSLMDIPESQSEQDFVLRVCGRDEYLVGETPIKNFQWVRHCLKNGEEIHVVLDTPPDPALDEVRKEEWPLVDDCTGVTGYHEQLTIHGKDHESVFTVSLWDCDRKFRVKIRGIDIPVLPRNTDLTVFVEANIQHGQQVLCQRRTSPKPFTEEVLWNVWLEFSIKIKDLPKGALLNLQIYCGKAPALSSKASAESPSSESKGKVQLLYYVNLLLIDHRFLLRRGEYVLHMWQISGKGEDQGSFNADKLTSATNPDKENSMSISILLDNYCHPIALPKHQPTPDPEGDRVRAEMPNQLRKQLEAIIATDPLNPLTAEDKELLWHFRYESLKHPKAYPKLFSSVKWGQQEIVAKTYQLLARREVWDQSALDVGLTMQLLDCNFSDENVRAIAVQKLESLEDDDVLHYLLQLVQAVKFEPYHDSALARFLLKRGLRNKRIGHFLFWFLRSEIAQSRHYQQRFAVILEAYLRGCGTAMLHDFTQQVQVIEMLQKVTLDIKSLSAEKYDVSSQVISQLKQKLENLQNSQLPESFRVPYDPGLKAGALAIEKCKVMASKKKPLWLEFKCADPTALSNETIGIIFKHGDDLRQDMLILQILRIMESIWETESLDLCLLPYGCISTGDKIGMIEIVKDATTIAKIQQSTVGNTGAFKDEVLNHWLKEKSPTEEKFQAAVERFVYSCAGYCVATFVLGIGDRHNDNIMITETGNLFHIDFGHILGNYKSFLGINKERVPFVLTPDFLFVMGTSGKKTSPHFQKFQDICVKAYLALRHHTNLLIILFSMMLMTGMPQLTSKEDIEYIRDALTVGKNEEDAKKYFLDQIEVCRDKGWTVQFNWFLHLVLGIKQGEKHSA

SMILES | IC50 (PI3K p110 beta/p85 alpha) [µM] | IC50 [7] [µM] | IC50 [8] [µM] | IC50 [10] [µM] | EC50 [9] [µM] | other results
Cc1ccccc1-n1c(Cn2nc(-c3cc(O)cc(F)c3)c3c(N)ncnc32)cc2cccc(C)c2c1=O | < 1 |  |  |  |  | Activity (Rattus norvegicus [1]): 24%; Activity (Rattus norvegicus [2]): Dose-dependent effect; inhibition (Homo sapiens): Active; Activity (Rattus norvegicus [3]): Dose-dependent effect; Activity (Rattus norvegicus [4]): Active; Activity (Rattus norvegicus [5]): Dose-dependent effect; Activity (Rattus norvegicus [6]): Dose-dependent effect
Cc1ccccc1-n1c(Cn2nc(I)c3c(N)ncnc32)cc2cccc(C)c2c1=O | > 10 | < 0.1 | 0.1 to 1 | > 10 | 0.1 to 1 | 
C=Cc1nn(Cc2cc3cccc(C)c3c(=O)n2-c2ccccc2C)c2ncnc(N)c12 | > 10 | < 0.1 | < 1 | > 10 | < 0.1 | 
COc1ccccc1-n1c(Cn2nc(C#C[C@@H](C)O)c3c(N)ncnc32)cc2cccc(C)c2c1=O | > 10 | < 0.1 | < 1 | > 10 | < 1 | 
CO[C@H]1C[C@@H]2CC[C@@H](C)[C@@](O)(O2)C(=O)C(=O)N2CCCC[C@H]2C(=O)O[C@H]([C@H](C)C[C@@H]2CC[C@@H](O)[C@H](OC)C2)CC(=O)[C@H](C)/C=C(\C)[C@@H](O)[C@@H](OC)C(=O)[C@H](C)C[C@H](C)/C=C/C=C/C=C/1C |  |  |  |  |  | inhibition [11]: Active; inhibition [12]: Active; Activity [13]: Active; Activity [14]: Active
Cc1cccc2cc(Cn3nc(Cl)c4c(N)ncnc43)n(-c3ccccc3F)c(=O)c12 | > 10 | < 1 | < 10 | > 10 | < 1 | 

Further lines, with some results ahead:

IC50 (PI3K p110 beta/p85 alpha) [µM] | IC50 [7] [µM] | IC50 [8] [µM] | IC50 [10] [µM] | SMILES | EC50 [9] [µM] | other results
> 10 | < 0.1 | < 1 | > 10 | COc1ccccc1-n1c(Cn2nc(I)c3c(N)ncnc32)cc2cccc(C)c2c1=O | < 1 | 
> 10 | < 1 | < 10 | > 10 | Cc1cccc2cc(Cn3nc(I)c4c(N)ncnc43)n(C)c(=O)c12 | < 1 | 
< 10 | < 0.1 | < 10 | > 10 | Cc1cccc2cc(Cn3nc(C#C[C@@H](C)O)c4c(N)ncnc43)n(C(C)C)c(=O)c12 | < 1 | 
> 10 | < 0.1 | < 1 | > 10 | Cc1cccc2cc(Cn3nc(-c4ccc(F)c(O)c4)c4c(N)ncnc43)n(-c3ccccc3F)c(=O)c12 | < 1 | 
> 10 | < 10 | < 1 | > 10 | COc1cc(-c2nn(Cc3cc4cccc(C)c4c(=O)n3-c3ccccc3F)c3ncnc(N)c23)ccc1Cl | < 10 | 
> 10 | < 0.1 | < 10 | > 10 | Cc1ccccc1-n1c(Cn2nc(C#C[C@@H](C)O)c3c(N)ncnc32)cc2cccc(C)c2c1=O | < 0.1 | 
< 10 | < 0.1 | < 0.1 | < 10 | Cc1ccccc1-n1c(Cn2nc(-c3ccc4oc(N)nc4c3)c3c(N)ncnc32)cc2cccc(C)c2c1=O | < 1 | 
